The target of one series is T1, cannabinoid CB1 receptor (Homo sapiens, UniProt P21554).
T1 construct: host or cells: HEK293 CB1 β-arrestin cells
The experiment in a line: PathHunter β-Arrestin assay (allosteric inhibition of agonist Emax). Format: cell-based. The settings on record: HEK293 CB1 β-arrestin cells; concentration of modulator giving 50% reduction in agonist Emax; 60 min pre-incubation. The text has this:
PathHunter™ enzyme fragment complementation is the most important method to measure β-arrestin recruitment. PathHunter™ β-Arrestin assays developed by DiscoveRX are revolutionary high-throughput screening assays for monitoring GPCR activation following ligand stimulation, without an imaging instrument, fluorescent protein tag, or radioactivity.
Instead, the assays detect GPCR activation through binding of β-arrestin to the expressed GPCR of interest, and measure the interaction of the two proteins using enzyme fragment complementation (EFC). The EFC approach offers a range of benefits for screening, including signal amplification and robust performance.
The larger portion of β-gal, termed EA for enzyme acceptor, is fused to the C-terminus of β-arrestin. The smaller, complementing fragment of β-gal, the ProLink™ tag, is expressed as a fusion protein with the GPCR of interest at the C-terminus. Upon activation, the GPCR is bound by β-arrestin. The interaction of β-arrestin and the GPCR forces the interaction of ProLink and EA, thus allowing complementation of the two fragments of β-gal and the formation of a functional enzyme capable of hydrolyzing substrate and generating a […] signal.
Using the PathHunter™ CB1 kit from DiscoveRX, a cannabinoid CB1 receptor agonist is added and activates the receptor, EA, which is fused to the C-terminus of β-arrestin, and then interacts with the ProLink™ tag which is fused to the CB1 receptor. This will result in the […] signal that is recorded by a luminescence plate reader. The […] signal is directly related to the activation of the receptor, therefore a higher concentration of agonist will yield a larger […] signal. The cannabinoid agonist is added in increasing concentrations to obtain an agonist dose response curve. With pre-incubation of a potential allosteric modulator, either an enhancement of agonist activity with an allosteric enhancer or a decrease in the maximal response of the agonist with an allosteric inhibitor is expected.
All raw data are obtained as luminescence (relative light units), and are normalised and presented as a percentage of the maximal response for the cannabinoid CB1 receptor agonist CP55,940 (2-[(1R,2R,5R)-5-hydroxy-2-(3-hydroxypropyl)cyclohexyl]-5-(2-methyloctan-2-yl)phenol).
The PathHunter™ β-Arrestin assay (from DiscoveRX, Fremont, USA) was performed as follows. HEK293 CB1 β-arrestin cells were plated 48 hours before use and incubated at 37° C., 5% CO2 in a humidified incubator. Test compounds were dissolved in dimethylsulfoxide (DMSO) and diluted in optimized cell culture (OCC, as supplied by DiscoveRX) media to the required concentrations. 5 μL of test compound or vehicle solution was added to each well and incubated for 60 minutes at 37° C., 5% CO2 in a humidified incubator. 5 μL of increasing concentrations of anandamide was added to each well followed by a 90-minute incubation at 37° C., 5% CO2 in a humidified incubator. 55 μL of detection reagent (as supplied by DiscoveRX) was then added, followed by a further 90 minute incubation at room temperature in the dark. Chemiluminescence, reported in relative light units (RLU—a dimensionless value, standardised as a % of maximum stimulation with anandamide), was measured on a standard luminescence plate reader.
Data were plotted as % of maximal stimulation (Emax) caused by agonist versus the logarithm of concentration of agonist, in the presence or absence of a fixed concentration of test compound (modulator) or vehicle. For example, stimulation in the presence of agonist alone will give a value for stimulation expressed in RLU, which can be expressed as a range from 0% (at lowest agonist concentration, e.g., 1 nM) to 100% (at the highest agonist concentration, e.g., 10 μM). […]

The nature of series [1]: Human liver microsomal stability assay. It counts as in vitro ADME. The note with it: both sexes, pH 7.4; pooled human liver microsomes 0.5 mg/mL, 3 μM compound, NADPH, 37° C., 45 min; read-out: Microsomal stability T1/2 Human. As to the method: (§1) Metabolic stability of indole-oxadiazole derivatives of Formula I was measured by determination of the rate of compound disappearance when incubated in the presence of human or rat liver microsomes. Liver microsomes are prepared from the endoplasmic reticulum of hepatocytes and are the primary source of the most important enzymes (cytochrome P450) involved in drug metabolism. Study of drug stability in the presence of liver microsomes is accepted as a valuable model permitting rapid prediction of in vivo drug stability.
(§2) Human and rat liver microsomes were obtained from commercial sources. Test compounds (3 μM) were incubated with pooled liver microsomes (male and female). Samples were incubated for a 45 minute period and removed at 5 time points and test compounds were analysed by LC-MS/MS.
(§3) Microsomes (final protein concentration 0.5 mg/mL), 0.1 M phosphate buffer pH 7.4, and test compound (final concentration 3 μM; diluted from 10 mM stock solution to give a final DMSO concentration of 0.25%) were incubated at 37° C. prior to the addition of NADPH (final concentration 1 mM) to initiate the reaction. The final incubation volume was 25 μL. A control incubation was included for each compound tested, where 0.1 M phosphate buffer pH 7.4 was added instead of NADPH. The control compounds testosterone and 7-hydroxycoumarin were included in each experiment and all incubations were performed singularly for each compound.
(§4) Each compound was incubated for 0, 5, 15, 30, and 45 minutes. The control (minus NADPH) was incubated for 45 minutes only. The reactions were stopped by the addition of 50 μL methanol containing internal standard at the appropriate time points. The incubation plates were centrifuged at 2500 rpm for 20 minutes at 4° C. to precipitate the protein.
(§5) Following protein precipitation, the sample supernatants were combined in cassettes of up to 4 compounds and analysed using standard LC-MS/MS conditions.
(§6) From a plot of the natural logarithm of the peak area ratio (i.e., the ratio of compound peak area:internal standard peak area) against time, the gradient of the line was determined. Subsequently, half-life and intrinsic clearance were calculated using the equations below:
(§7) Eliminated rate constant (k)=(−gradient).
(In general: Liver microsomes are vesicles of endoplasmic reticulum, rich in cytochrome P450 enzymes.)

Series [2] in a line: Rat liver microsomal stability assay. It counts as in vitro ADME. The note with it: both sexes, pH 7.4; pooled rat liver microsomes 0.5 mg/mL, 3 μM compound, NADPH, 37° C., 45 min; read-out: Microsomal stability T1/2 Rat. As to the method: as §1, §2, §3, §4, §5, §6, §7

Molecules are shown by their SMILES.

Data on 21 compounds can be found in US20220257569A1, “INDOLE-OXADIAZOLE COMPOUNDS AND THEIR THERAPEUTIC USE” (THE GOVERNING COUNCIL OF THE UNIVERSITY OF TORONTO, priority 2018, published 2022).

The term IC50 denotes the concentration at which inhibition is half-maximal. As a reminder, the melting point is the temperature of the solid-liquid transition.

T1 sequence (P21554 whole entry): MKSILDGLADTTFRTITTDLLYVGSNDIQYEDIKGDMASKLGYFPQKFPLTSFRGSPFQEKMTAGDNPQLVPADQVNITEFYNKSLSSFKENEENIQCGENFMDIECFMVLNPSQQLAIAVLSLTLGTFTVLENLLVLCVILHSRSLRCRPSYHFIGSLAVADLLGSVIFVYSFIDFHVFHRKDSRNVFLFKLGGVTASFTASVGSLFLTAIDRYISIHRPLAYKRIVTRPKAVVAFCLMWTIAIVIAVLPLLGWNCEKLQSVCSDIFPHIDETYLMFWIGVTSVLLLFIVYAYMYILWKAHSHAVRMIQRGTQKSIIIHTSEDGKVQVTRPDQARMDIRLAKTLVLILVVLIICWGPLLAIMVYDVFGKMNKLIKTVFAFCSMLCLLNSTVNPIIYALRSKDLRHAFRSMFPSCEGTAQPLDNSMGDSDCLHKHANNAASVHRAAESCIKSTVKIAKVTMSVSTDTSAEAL

For `c1ccc(CCSc2nnc(-c3cc4ccccc4[nH]3)o2)cc1` [ABM334, 2-(1H-Indol-2-yl)-5-(phenethylthio)-1,3,4-oxadiazole], the melting point fell in the range of 184 to 186 °C. Further, the half-inhibitory concentration (IC50) at cannabinoid CB1 receptor is 172 nM.

`CCc1c(-c2nnc(SCc3ccccc3)o2)[nH]c2ccc(Cl)cc12` [ABM328, 2-(Benzylthio)-5-(5-chloro-3-ethyl-1H-indol-2-yl)-1,3,4-oxadiazole] showed a melting point of 180 to 182 °C. In addition, on cannabinoid CB1 receptor, the concentration for half-maximal inhibition (IC50) came out at 58 nM. For the same compound, the half-life at 3 μM in series [1] was determined as 46 min. The half-life at 3 μM in series [2] stood at 40 min.

For the compound `CCc1c(-c2nnc(SCc3ccc(OC)cc3)o2)[nH]c2ccc(Cl)cc12` [ABM331, 2-(5-Chloro-3-ethyl-1H-indol-2-yl)-5-((4-methoxybenzyl)thio)-1,3,4-oxadiazole], the melting point was in the range of 179 to 181 °C. Further, the IC50 at cannabinoid CB1 receptor worked out at 56 nM.

Turning to `CCc1c(-c2nnc(SCc3ccc(F)cc3)o2)[nH]c2ccc(Br)cc12` [ABM340, 2-(5-Bromo-3-ethyl-1H-indol-2-yl)-5-((4-fluorobenzyl)thio)-1,3,4-oxadiazole], the melting point was in the range of 185 to 187 °C. Besides, the concentration for half-maximal inhibition (IC50) on cannabinoid CB1 receptor is 19 nM. Further, in series [1], the half-life at 3 μM was found to be 40 min. The half-life at 3 μM in series [2] worked out at 23 min.

In the case of `CCc1c(-c2nnc(NCc3ccccc3)o2)[nH]c2ccc(Br)cc12` [ABM316, N-Benzyl-5-(5-bromo-3-ethyl-1H-indol-2-yl)-1,3,4-oxadiazol-2-amine], the melting point was 218 to 220 °C. Moreover, the 50% inhibitory concentration (IC50) at cannabinoid CB1 receptor was 12 nM.

Compound `CCc1c(-c2nnc(Nc3ccc(F)cc3)o2)[nH]c2ccc(Br)cc12` [ABM338, 5-(5-Bromo-3-ethyl-1H-indol-2-yl)-N-(4-fluorophenyl)-1,3,4-oxadiazol-2-amine] gave a melting point of 243 to 245 °C. In addition, on cannabinoid CB1 receptor, the 50% inhibitory concentration (IC50) came to 1 nM. For the same compound, the half-life at 3 μM in series [1] worked out at 174 min. The half-life at 3 μM in series [2] worked out at 292 min.

`Cc1c(-c2nnc(SCCCc3ccccc3)o2)[nH]c2ccc(Cl)cc12` [ABM323, 2-(5-Chloro-3-methyl-1H-indol-2-yl)-5-((3-phenylpropyl)thio)-1,3,4-oxadiazole]: the melting point fell in the range of 179 to 180 °C. Moreover, the IC50 at cannabinoid CB1 receptor turned out to be 263 nM.

In the case of `Cc1c(-c2nnc(NCCc3ccccc3)o2)[nH]c2ccc(Cl)cc12` [ABM319, 5-(5-Chloro-3-methyl-1H-indol-2-yl)-N-phenethyl-1,3,4-oxadiazol-2-amine], the melting point lay within 195 to 197 °C. The IC50 on cannabinoid CB1 receptor came to 1 nM.

`CCc1c(-c2nnc(SCc3ccc(C)cc3)o2)[nH]c2ccc(Cl)cc12` [ABM332, 2-(5-Chloro-3-ethyl-1H-indol-2-yl)-5-((4-methylbenzyl)thio)-1,3,4-oxadiazole]: the melting point was in the range of 195 to 197 °C. Further, the IC50 on cannabinoid CB1 receptor stood at 85 nM.

Compound `CCc1c(-c2nnc(NCc3ccccc3)o2)[nH]c2ccc(Cl)cc12` [ABM313, N-Benzyl-5-(5-chloro-3-ethyl-1H-indol-2-yl)-1,3,4-oxadiazol-2-amine] displayed a melting point of 216 to 218 °C. The IC50 at cannabinoid CB1 receptor amounted to 12 nM.

`CCc1c(-c2nnc(SCc3ccccc3)o2)[nH]c2ccc(Br)cc12` [ABM305, 2-(Benzylthio)-5-(5-bromo-3-ethyl-1H-indol-2-yl)-1,3,4-oxadiazole] gave a melting point of 183 to 185 °C. Further, the half-inhibitory concentration (IC50) on cannabinoid CB1 receptor came out at 30 nM.

The compound `CCc1c(-c2nnc(SCCc3ccccc3)o2)[nH]c2ccc(Br)cc12` [ABM325] yielded a melting point of 185 to 186 °C. Further, on cannabinoid CB1 receptor, the IC50 was 315 nM.

The compound `CCc1c(-c2nnc(Nc3ccccc3)o2)[nH]c2ccc(Br)cc12` [ABM312, 5-(5-Bromo-3-ethyl-1H-indol-2-yl)-N-phenyl-1,3,4-oxadiazol-2-amine] displayed a melting point of 240 to 242 °C. Also, the IC50 on cannabinoid CB1 receptor was determined as 1 nM.

`Clc1ccc2[nH]c(-c3nnc(Nc4ccccc4)o3)cc2c1` [ABM310, 5-(5-Chloro-1H-indol-2-yl)-N-phenyl-1,3,4-oxadiazol-2-amine] registered a melting point of 272 to 274 °C. Further, the 50% inhibitory concentration (IC50) at cannabinoid CB1 receptor was determined as 3 nM.

On to `O=S(=O)(NCc1ccc(-c2ccc(F)cc2F)cn1)c1cc2cc(Cl)ccc2[nH]1` [Reference compound 2 (ABD1075), reference compound], for which the half-life at 3 μM came out at 56 min in series [1] and 32 min in series [2].

For the compound `Fc1ccc(Nc2nnc(-c3cc4cc(Cl)ccc4[nH]3)o2)cc1` [ABM336, 5-(5-Chloro-1H-indol-2-yl)-N-(4-fluorophenyl)-1,3,4-oxadiazol-2-amine], the melting point lay within 265 to 267 °C. Moreover, the IC50 at cannabinoid CB1 receptor is 5 nM.

Turning to `Cc1c(-c2nnc(SCc3ccc(F)cc3)o2)[nH]c2ccc(Cl)cc12` [ABM339, 2-(5-Chloro-3-methyl-1H-indol-2-yl)-5-((4-fluorobenzyl)thio)-1,3,4-oxadiazole], the melting point lay within 210 to 212 °C. Also, the 50% inhibitory concentration (IC50) at cannabinoid CB1 receptor came out at 270 nM.

In the case of `O=S(=O)(NCc1ccc(-c2ccc(F)nc2F)cc1)c1cc2cc(Cl)ccc2[nH]1` [Reference compound 3 (ABD1085), reference compound], the half-life at 3 μM was determined as 39 min in series [1] and 48 min in series [2].

With `CCc1c(-c2nnc(Nc3ccc(F)cc3)o2)[nH]c2ccc(Cl)cc12` [ABM335, 5-(5-Chloro-3-ethyl-1H-indol-2-yl)-N-(4-fluorophenyl)-1,3,4-oxadiazol-2-amine], the melting point lay within 248 to 250 °C. Besides, the 50% inhibitory concentration (IC50) at cannabinoid CB1 receptor amounted to 1 nM.

In turn, `CCc1c(-c2nnc(NCCc3ccccc3)o2)[nH]c2ccc(Br)cc12` [ABM320, 5-(5-Bromo-3-ethyl-1H-indol-2-yl)-N-phenethyl-1,3,4-oxadiazol-2-amine] displayed a melting point of 170 to 172 °C. Besides, the IC50 on cannabinoid CB1 receptor is 1 nM.

In turn, `Clc1ccc2[nH]c(-c3nnc(NCc4ccccc4)o3)cc2c1` [ABM314, N-Benzyl-5-(5-chloro-1H-indol-2-yl)-1,3,4-oxadiazol-2-amine] returned a melting point of 245 to 247 °C. The half-inhibitory concentration (IC50) on cannabinoid CB1 receptor is 105 nM.
